Values quoted from earlier work in publication PMC8672822 (RSC Medicinal Chemistry, 2021).
Read-outs that look alike come from different tables or passages of the source. Values belong to the molecule of their own block, whether it stands above or below them.

Tests used:
[1] = test system: DC-SIGN; conditions: SPR competition
[2] = molecular target: bovine Mincle
[3] = test system: murine Mincle; conditions: murine isoform
[4] = test system: human Mincle; conditions: human isoform
[5] = test system: peripheral blood mononuclear cells (PBMCs) or bone marrow-derived macrophages (BMDM)
[6] = test system: Langerin
[7] = test system: DC-SIGN; conditions: monovalent
[8] = test system: DC-SIGN+ cells
[9] = in comparison to Man-α-1,2-Man
[10] = test system: DC-SIGN
[11] = molecular target: DC-SIGN; conditions: SPR direct
[12] = molecular target: DC-SIGN; conditions: ITC
[13] = test system: Langerin; remark: listed apart in the source
[14] = test system: DC-SIGN; conditions: relative to plate assay
[15] = test system: macrophage

- IC50 [1]: 350 µM
Molecule: 2-C-aminomethyl-D-mannose [compound 21]

- Ki [2]: 5.5 µM
- binding [3]: no binding
- binding [4]: no binding
Molecule: Cc1cc(O)cc(O)c1C(=O)OC[C@H]1O[C@H](O[C@H]2O[C@H](COC(=O)c3c(C)cc(O)cc3O)[C@@H](O)[C@H](O)[C@H]2O)[C@H](O)[C@@H](O)[C@@H]1O [compound 3, brartemicin]
- Mincle-induced immune activation [5]: no or a less effective Mincle-induced immune activation

- increase in binding affinity compared to the reference N-acetyl glucosamine [6]: 13 fold
Molecule: CC(=O)NCCO[C@@H]1O[C@H](CO)[C@@H](O)[C@H](O)[C@H]1NS(=O)(=O)c1ccc(C)cc1 [compound 19]

- IC50 [7]: 3200 µM
Molecule: NC(=O)[C@H](CCC(=O)O)NC(=O)[C@H]1C[C@@H](O)[C@H](O)[C@H](O)[C@H]1SCCCCSCc1cccc(F)c1 [compound 22]

- resistance towards enzymatic digestion [9]: more resistant
Molecule: COC(=O)[C@H]1C[C@H](OCCN)[C@@H](O[C@H]2O[C@H](CO)[C@@H](O)[C@H](O)[C@@H]2O)C[C@@H]1C(=O)OC [compound 24]
- activity in comparison to Man-α-1,2-Man [8]: three times more active

- IC50 ([10]; SPR competition): 300 µM
Molecule: [N-]=[N+]=NCCO[C@H]1C[C@H](C(=O)NCc2ccc(CO)cc2)[C@@H](C(=O)NCc2ccc(CO)cc2)C[C@@H]1O[C@H]1O[C@H](CO)[C@@H](O)[C@H](O)[C@@H]1O [compound 25]

- IC50 ([10]; SPR competitive): 254 µM
- Kd [11]: 310 µM
- Kd [12]: 171 µM
Molecule: [N-]=[N+]=NCCO[C@H]1C[C@H](C(=O)NCc2ccc(CO)cc2)[C@@H](C(=O)NCc2ccc(CO)cc2)C[C@@H]1O[C@H]1O[C@H](CN)[C@@H](O)[C@H](O)[C@@H]1O [compound 26]
- selectivity for DC-SIGN over Langerin [13]: fully selective for DC-SIGN over Langerin

- IC50 ([10]; SPR competitive): 76 µM
- Kd [11]: 53 µM
- Kd [12]: 52 µM
Molecule: NCc1cn([C@@H]2[C@@H](O[C@H]3C[C@H](C(=O)NCc4ccc(CO)cc4)[C@@H](C(=O)NCc4ccc(CO)cc4)C[C@@H]3OCCCl)O[C@H](CO)[C@@H](O)[C@@H]2O)nn1 [compound 27]
- selectivity for DC-SIGN over Langerin [13]: full selectivity against Langerin

Molecule: CC(C)OC(=O)c1ccc(-c2ccc(/C=C3\C(=O)N(c4ccc(S(N)(=O)=O)cc4)N=C3C(F)(F)F)o2)cc1 [compound 33]
- decrease in affinity in cellular assay [14]: up to 100 fold

- aqueous solubility: improved aqueous solubility
Molecule: NC(=O)c1ccc(CCCC2Nc3ccc(C(=O)N4CCN(c5ncccn5)CC4)cc3NC2=O)cc1 (stereo not shown) [compound 35]

- aqueous solubility: improved aqueous solubility
Molecule: NS(=O)(=O)c1ccc(CCCC2Nc3ccc(C(=O)N4CCN(c5ccncc5)CC4)cc3NC2=O)cc1 (stereo not shown) [compound 36]

Molecule: OC[C@H]1O[C@H](O[C@H]2O[C@H](CO)[C@@H](O)[C@H](O)[C@H]2O)[C@H](O)[C@@H](O)[C@@H]1O [trehalose]
- macrophage activation [15]: no effect
